Experimental data reported in PubChem BioAssay AID1963829 (Molecular Pharmacology Branch, DTP, NCI, 2024).

System: 935938-334-R-J1-PDC complex spheroid viability
Experiment: Anticancer human tumor 935938-334-R-J1-PDC patient-derived small intestine adenocarcinoma cell line growth inhibition [POLQ]
Details: for IC50: curve of first compound; for viability, T/C: stronger effect = lower value
Method in brief: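 PDC + HUVEC + MSC complex spheroids; POLQ inhibitors ± partner drugs; top conc. at/near clinical Cmax, else 10 microM (SN-38 1 microM), half-log dilutions; 37 degrees C, 5% CO2.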

[1] = second compound 0.0316 µM, first compound 0.0316 µM
[2] = second compound 0.0316 µM, first compound 0.1 µM
[3] = second compound 0.0316 µM, first compound 0.316 µM
[4] = second compound 0.0316 µM, first compound 1 µM
[5] = second compound 0.0316 µM, first compound 3.16 µM
[6] = second compound 0.0316 µM, first compound 10 µM
[7] = second compound 0.1 µM, first compound 0.0316 µM
[8] = second compound 0.1 µM, first compound 0.1 µM
[9] = second compound 0.1 µM, first compound 0.316 µM
[10] = second compound 0.1 µM, first compound 1 µM
[11] = second compound 0.1 µM, first compound 3.16 µM
[12] = second compound 0.1 µM, first compound 10 µM
[13] = second compound 0.316 µM, first compound 0.0316 µM
[14] = second compound 0.316 µM, first compound 0.1 µM
[15] = second compound 0.316 µM, first compound 0.316 µM
[16] = second compound 0.316 µM, first compound 1 µM
[17] = second compound 0.316 µM, first compound 3.16 µM
[18] = second compound 0.316 µM, first compound 10 µM
[19] = second compound 1 µM, first compound 0.0316 µM
[20] = second compound 1 µM, first compound 0.1 µM
[21] = second compound 1 µM, first compound 0.316 µM
[22] = second compound 1 µM, first compound 1 µM
[23] = second compound 1 µM, first compound 3.16 µM
[24] = second compound 1 µM, first compound 10 µM
[25] = second compound 3.16 µM, first compound 0.0316 µM
[26] = second compound 3.16 µM, first compound 0.1 µM
[27] = second compound 3.16 µM, first compound 0.316 µM
[28] = second compound 3.16 µM, first compound 1 µM
[29] = second compound 3.16 µM, first compound 3.16 µM
[30] = second compound 3.16 µM, first compound 10 µM
[31] = second compound 10 µM, first compound 0.0316 µM
[32] = second compound 10 µM, first compound 0.1 µM
[33] = second compound 10 µM, first compound 0.316 µM
[34] = second compound 10 µM, first compound 1 µM
[35] = second compound 10 µM, first compound 3.16 µM
[36] = second compound 10 µM, first compound 10 µM
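Note: spheroids exposed to drugs for seven days before viability read.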
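Throughout, for viability, T/C: 100% = DMSO vehicle control wells.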

Nc1ccn(C2OC(CO)C(O)C2(F)F)c(=O)n1 (stereo unspecified) + Nc1ccc(C#CCN(C(=O)Cc2ncc(C(F)(F)F)cc2C(F)(F)F)c2ccc(F)cc2)nn1
IC50 (second compound 0.0316 µM): < 31.6 nM
IC50 (second compound 0.1 µM): < 31.6 nM
IC50 (second compound 0.316 µM): < 31.6 nM
IC50 (second compound 1 µM): < 31.6 nM
IC50 (second compound 3.16 µM): < 31.6 nM
IC50 (second compound 10 µM): < 31.6 nM
viability, T/C [1]: 35.4%
viability, T/C [2]: 27.6%
viability, T/C [3]: 17.3%
viability, T/C [4]: 17.3%
viability, T/C [5]: 18.2%
viability, T/C [6]: 16.8%
viability, T/C [7]: 33.2%
viability, T/C [8]: 24.4%
viability, T/C [9]: 16.5%
viability, T/C [10]: 17.5%
viability, T/C [11]: 19.1%
viability, T/C [12]: 13.9%
viability, T/C [13]: 31.1%
viability, T/C [14]: 24.8%
viability, T/C [15]: 23.2%
viability, T/C [16]: 19.6%
viability, T/C [17]: 17.1%
viability, T/C [18]: 14.4%
viability, T/C [19]: 33.2%
viability, T/C [20]: 23.4%
viability, T/C [21]: 18.2%
viability, T/C [22]: 19.1%
viability, T/C [23]: 16.6%
viability, T/C [24]: 15.3%
viability, T/C [25]: 30.2%
viability, T/C [26]: 25.6%
viability, T/C [27]: 20.2%
viability, T/C [28]: 21.2%
viability, T/C [29]: 17.5%
viability, T/C [30]: 17.1%
viability, T/C [31]: 42.9%
viability, T/C [32]: 31.6%
viability, T/C [33]: 30.1%
viability, T/C [34]: 20.6%
viability, T/C [35]: 19.8%
viability, T/C [36]: 19.2%

C=CC(=O)N1CCN(c2nc(=O)n(-c3c(C)ccnc3C(C)C)c3nc(-c4c(O)cccc4F)c(F)cc23)C(C)C1 (stereo unspecified) + COC1C(OC(N)=O)C(O)C(Oc2ccc3c(O)c(NC(=O)c4ccc(O)c(CC=C(C)C)c4)c(=O)oc3c2C)OC1(C)C
IC50 (second compound 0.0316 µM): > 10000 nM
IC50 (second compound 0.1 µM): > 10000 nM
IC50 (second compound 0.316 µM): > 10000 nM
IC50 (second compound 1 µM): > 10000 nM
IC50 (second compound 3.16 µM): > 10000 nM
IC50 (second compound 10 µM): > 10000 nM
viability, T/C [1]: 107%
viability, T/C [2]: 88.4%
viability, T/C [3]: 107%
viability, T/C [4]: 82.9%
viability, T/C [5]: 131%
viability, T/C [6]: 111%
viability, T/C [7]: 85.3%
viability, T/C [8]: 110%
viability, T/C [9]: 90.8%
viability, T/C [10]: 99.3%
viability, T/C [11]: 104%
viability, T/C [12]: 126%
viability, T/C [13]: 129%
viability, T/C [14]: 87.2%
viability, T/C [15]: 103%
viability, T/C [16]: 80.7%
viability, T/C [17]: 85.5%
viability, T/C [18]: 115%
viability, T/C [19]: 101%
viability, T/C [20]: 86.4%
viability, T/C [21]: 101%
viability, T/C [22]: 107%
viability, T/C [23]: 102%
viability, T/C [24]: 113%
viability, T/C [25]: 117%
viability, T/C [26]: 99.7%
viability, T/C [27]: 93.4%
viability, T/C [28]: 96.9%
viability, T/C [29]: 102%
viability, T/C [30]: 111%
viability, T/C [31]: 102%
viability, T/C [32]: 81.3%
viability, T/C [33]: 106%
viability, T/C [34]: 94.7%
viability, T/C [35]: 103%
viability, T/C [36]: 118%

CC[C@@]1(O)C(=O)OCc2c1cc1n(c2=O)Cc2cc3c(CN(C)C)c(O)ccc3nc2-1 + Nc1ccc(C#CCN(C(=O)Cc2ncc(C(F)(F)F)cc2C(F)(F)F)c2ccc(F)cc2)nn1
IC50 (second compound 0.0316 µM): > 100 nM
IC50 (second compound 0.1 µM): > 100 nM
IC50 (second compound 0.316 µM): > 100 nM
IC50 (second compound 1 µM): > 100 nM
IC50 (second compound 3.16 µM): > 100 nM
IC50 (second compound 10 µM): > 100 nM
viability, T/C (second compound 0.0316 µM, first compound 0.000316 µM): 73.9%
viability, T/C (second compound 0.0316 µM, first compound 0.001 µM): 96.8%
viability, T/C (second compound 0.0316 µM, first compound 0.00316 µM): 97.6%
viability, T/C (second compound 0.0316 µM, first compound 0.01 µM): 91.9%
viability, T/C [1]: 84.3%
viability, T/C [2]: 60.2%
viability, T/C (second compound 0.1 µM, first compound 0.000316 µM): 98.6%
viability, T/C (second compound 0.1 µM, first compound 0.001 µM): 101%
viability, T/C (second compound 0.1 µM, first compound 0.00316 µM): 113%
viability, T/C (second compound 0.1 µM, first compound 0.01 µM): 98.1%
viability, T/C [7]: 96.7%
viability, T/C [8]: 63%
viability, T/C (second compound 0.316 µM, first compound 0.000316 µM): 129%
viability, T/C (second compound 0.316 µM, first compound 0.001 µM): 130%
viability, T/C (second compound 0.316 µM, first compound 0.00316 µM): 99.2%
viability, T/C (second compound 0.316 µM, first compound 0.01 µM): 82.6%
viability, T/C [13]: 87.4%
viability, T/C [14]: 57%
viability, T/C (second compound 1 µM, first compound 0.000316 µM): 132%
viability, T/C (second compound 1 µM, first compound 0.001 µM): 117%
viability, T/C (second compound 1 µM, first compound 0.00316 µM): 77.8%
viability, T/C (second compound 1 µM, first compound 0.01 µM): 105%
viability, T/C [19]: 86.7%
viability, T/C [20]: 48%
viability, T/C (second compound 3.16 µM, first compound 0.000316 µM): 110%
viability, T/C (second compound 3.16 µM, first compound 0.001 µM): 110%
viability, T/C (second compound 3.16 µM, first compound 0.00316 µM): 96.9%
viability, T/C (second compound 3.16 µM, first compound 0.01 µM): 116%
viability, T/C [25]: 84%
viability, T/C [26]: 65.1%
viability, T/C (second compound 10 µM, first compound 0.000316 µM): 163%
viability, T/C (second compound 10 µM, first compound 0.001 µM): 117%
viability, T/C (second compound 10 µM, first compound 0.00316 µM): 111%
viability, T/C (second compound 10 µM, first compound 0.01 µM): 72.7%
viability, T/C [31]: 103%
viability, T/C [32]: 48.6%
